This data set relates to rodent lifetime carcinogenesis bioassay, tumor incidence TD50. The data set is described as follows: chronic cancer bioassays in animals – CPDB, compiled studies (AID 1745844).
[1] abbreviates: mouse, strain B6C3F1, females, by gavage, site: any site (literature study), lesion: several types, types named in the paper, dosed 103 weeks, study length 105 weeks.
Where [2] appears, read: mouse, strain B6C3F1, females, by gavage, site: liver, lesion: hepatocellular adenoma + hepatocellular carcinoma + neoplastic nodule, dosed 103 weeks, study length 105 weeks.
[3] abbreviates: mouse, strain B6C3F1, females, by gavage, site: liver, lesion: hepatocellular adenoma + hepatocellular carcinoma, dosed 103 weeks, study length 105 weeks.
[4] abbreviates: mouse, strain B6C3F1, females, by gavage, site: liver, lesion: hepatocellular adenoma, dosed 103 weeks, study length 105 weeks.
The mark [5] stands for this setting: mouse, strain B6C3F1, males, by gavage, site: any site (literature study), lesion: several types, types named in the paper, dosed 103 weeks, study length 105 weeks.
The mark [6] stands for this setting: mouse, strain B6C3F1, males, by gavage, site: liver, lesion: hepatocellular adenoma + hepatocellular carcinoma + neoplastic nodule, dosed 103 weeks, study length 105 weeks.
Setting [7] is: mouse, strain B6C3F1, males, by gavage, site: liver, lesion: hepatocellular adenoma + hepatocellular carcinoma, dosed 103 weeks, study length 105 weeks.
Setting [8] is: mouse, strain B6C3F1, males, by gavage, site: liver, lesion: hepatocellular adenoma, dosed 103 weeks, study length 105 weeks.
Where [9] appears, read: mouse, strain B6C3F1, males, by gavage, site: lung, lesion: alveolar/bronchiolar adenoma + alveolar/bronchiolar carcinoma, dosed 103 weeks, study length 105 weeks.
[10] abbreviates: rat, strain Fischer 344, females, by gavage, site: any site (literature study), lesion: several types, types named in the paper, dosed 103 weeks, study length 105 weeks.

SMILES strings stand for the structures. Calls of active or inactive are those of the source. The rule behind the calls is not given here.

The record followed here is PubChem BioAssay AID1745844 (Carcinogenic Potency Database (CPDB), 2022).

One may read the TD50 as the dose at which the toxic effect under study appears in half of the subjects. For `C[C@]12CC[C@@H]3c4ccc(OC(=O)Cc5ccc(N(CCCl)CCCl)cc5)cc4CC[C@H]3[C@@H]1CC[C@@H]2OC(=O)Cc1ccc(N(CCCl)CCCl)cc1`, the TD50 was 0.682 mg/kg/day (mouse, strain B6C3F1, females, by gavage, site: all sites + lung + myocardium + stomach, lesion: lymphoma + alveolar/bronchiolar adenoma + alveolar/bronchiolar carcinoma + sarcoma, NOS + squamous-cell carcinoma, dosed 52 weeks, study length 84 weeks); 2.23 mg/kg/day (mouse, strain B6C3F1, females, by gavage, site: all sites, lesion: lymphoma, dosed 52 weeks, study length 82 weeks); 2.34 mg/kg/day (mouse, strain B6C3F1, females, by gavage, site: all sites, lesion: lymphoma, dosed 52 weeks, study length 84 weeks); 0.562 mg/kg/day (mouse, strain B6C3F1, females, by gavage, site: any site (literature study), lesion: several types, types named in the paper, dosed 52 weeks, study length 84 weeks); 1.28 mg/kg/day (mouse, strain B6C3F1, females, by gavage, site: lung, lesion: alveolar/bronchiolar adenoma + alveolar/bronchiolar carcinoma, dosed 52 weeks, study length 82 weeks); 1.14 mg/kg/day (mouse, strain B6C3F1, females, by gavage, site: lung, lesion: alveolar/bronchiolar adenoma + alveolar/bronchiolar carcinoma, dosed 52 weeks, study length 84 weeks). Further, the TD50 (mouse, strain B6C3F1, females, by gavage, site: lung, lesion: alveolar/bronchiolar carcinoma, dosed 52 weeks, study length 82 weeks) is 2.87 mg/kg/day; the TD50 (mouse, strain B6C3F1, females, by gavage, site: mammary gland, lesion: adenocarcinoma, NOS + carcinoma, NOS, dosed 52 weeks, study length 82 weeks) turned out to be 12.8 mg/kg/day; the TD50 (mouse, strain B6C3F1, females, by gavage, site: mammary gland, lesion: adenocarcinoma, NOS + carcinoma, NOS, dosed 52 weeks, study length 84 weeks) stood at 13.4 mg/kg/day; the TD50 (mouse, strain B6C3F1, females, by gavage, site: myocardium, lesion: sarcoma, NOS, dosed 52 weeks, study length 82 weeks) was 3.22 mg/kg/day; the TD50 (mouse, strain B6C3F1, females, by gavage, site: myocardium, lesion: sarcoma, NOS, dosed 52 weeks, study length 84 weeks) was 3.01 mg/kg/day; the TD50 (mouse, strain B6C3F1, females, by gavage, site: stomach, lesion: squamous-cell carcinoma, dosed 52 weeks, study length 84 weeks) is 5.17 mg/kg/day. The TD50 is 4.1 mg/kg/day (mouse, strain B6C3F1, males, by gavage, site: all sites + stomach, lesion: leukemia + lymphoma + squamous-cell carcinoma, dosed 52 weeks, study length 83 weeks); 4.31 mg/kg/day (mouse, strain B6C3F1, males, by gavage, site: all sites, lesion: leukemia + lymphoma, dosed 52 weeks, study length 81 weeks); 4.39 mg/kg/day (mouse, strain B6C3F1, males, by gavage, site: all sites, lesion: leukemia + lymphoma, dosed 52 weeks, study length 83 weeks); 1.96 mg/kg/day (mouse, strain B6C3F1, males, by gavage, site: any site (literature study), lesion: several types, types named in the paper, dosed 52 weeks, study length 83 weeks); 1.99 mg/kg/day (mouse, strain B6C3F1, males, by gavage, site: lung, lesion: alveolar/bronchiolar adenoma + alveolar/bronchiolar carcinoma, dosed 52 weeks, study length 81 weeks); 2.34 mg/kg/day (mouse, strain B6C3F1, males, by gavage, site: lung, lesion: alveolar/bronchiolar adenoma + alveolar/bronchiolar carcinoma, dosed 52 weeks, study length 83 weeks). Moreover, the TD50 is, setting by setting: (mouse, strain B6C3F1, males, by gavage, site: lung, lesion: alveolar/bronchiolar carcinoma, dosed 52 weeks, study length 81 weeks) 3.61 mg/kg/day; (mouse, strain B6C3F1, males, by gavage, site: myocardium, lesion: sarcoma, NOS, dosed 52 weeks, study length 81 weeks) 5.55 mg/kg/day; (mouse, strain B6C3F1, males, by gavage, site: stomach, lesion: squamous-cell carcinoma, dosed 52 weeks, study length 83 weeks) 29 mg/kg/day; (rat, strain Sprague-Dawley, females, by gavage, site: any site (literature study), lesion: several types, types named in the paper, dosed 52 weeks, study length 85 weeks) 0.189 mg/kg/day (inactive); (rat, strain Sprague-Dawley, males, by gavage, site: any site (literature study), lesion: several types, types named in the paper, dosed 52 weeks, study length 85 weeks) 3.85 mg/kg/day (inactive); (rat, strain Sprague-Dawley, males, by gavage, site: mammary gland, lesion: fibroadenoma, dosed 52 weeks, study length 85 weeks) 0.756 mg/kg/day (inactive).
For `Cc1c(-c2cnccn2)ssc1=S`, the carcinogen call is “negative (inactive)” (rat, strain Charles River CD (Sprague-Dawley), females, by gavage, site: liver, lesion: one or several types, types not named, dosed 52 weeks, study length 52 weeks) and “negative (inactive)” (rat, strain Charles River CD (Sprague-Dawley), males, by gavage, site: liver, lesion: one or several types, types not named, dosed 52 weeks, study length 52 weeks).
On to `C=CC(=O)NCO`, for which the TD50 is 27.8 mg/kg/day (mouse, strain B6C3F1, females, by gavage, site: Harderian gland + liver + lung + ovary, lesion: adenoma + adenoma, bilateral + hepatocellular adenoma + alveolar/bronchiolar adenoma + alveolar/bronchiolar carcinoma + granulosa-, dosed 103 weeks, study length 105 weeks); 44.6 mg/kg/day (mouse, strain B6C3F1, females, by gavage, site: Harderian gland, lesion: adenoma + adenoma, bilateral + carcinoma, dosed 103 weeks, study length 105 weeks); 55.5 mg/kg/day (mouse, strain B6C3F1, females, by gavage, site: Harderian gland, lesion: adenoma + adenoma, bilateral, dosed 103 weeks, study length 105 weeks); 30.9 mg/kg/day under setting [1]; 74.8 mg/kg/day under setting [2]; 74.8 mg/kg/day under setting [3]. Further, the TD50 was 66.9 mg/kg/day under setting [4]; 111 mg/kg/day (mouse, strain B6C3F1, females, by gavage, site: lung, lesion: alveolar/bronchiolar adenoma + alveolar/bronchiolar carcinoma, dosed 103 weeks, study length 105 weeks); 119 mg/kg/day (mouse, strain B6C3F1, females, by gavage, site: ovary, lesion: granulosa-cell tumor, benign, dosed 103 weeks, study length 105 weeks); 13.3 mg/kg/day (mouse, strain B6C3F1, males, by gavage, site: Harderian gland + liver + lung, lesion: adenoma + hepatocellular adenoma + hepatocellular carcinoma + alveolar/bronchiolar adenoma + alveolar/bronchiolar carcinoma, dosed 103 weeks, study length 105 weeks); 17.4 mg/kg/day (mouse, strain B6C3F1, males, by gavage, site: Harderian gland, lesion: adenoma + carcinoma, dosed 103 weeks, study length 105 weeks); 17.5 mg/kg/day (mouse, strain B6C3F1, males, by gavage, site: Harderian gland, lesion: adenoma, dosed 103 weeks, study length 105 weeks). Moreover, the TD50 by setting is: under setting [5], 22.3 mg/kg/day; under setting [6], 29.4 mg/kg/day; under setting [7], 29.4 mg/kg/day; under setting [8], 50.2 mg/kg/day; (mouse, strain B6C3F1, males, by gavage, site: liver, lesion: hepatocellular carcinoma, dosed 103 weeks, study length 105 weeks) 63.4 mg/kg/day; under setting [9], 38.5 mg/kg/day. Further, the TD50 (mouse, strain B6C3F1, males, by gavage, site: lung, lesion: alveolar/bronchiolar adenoma, dosed 103 weeks, study length 105 weeks) worked out at 66 mg/kg/day; the TD50 (mouse, strain B6C3F1, males, by gavage, site: lung, lesion: alveolar/bronchiolar carcinoma, dosed 103 weeks, study length 105 weeks) worked out at 75.1 mg/kg/day; the TD50 (rat, strain Fischer 344, males, by gavage, site: any site (literature study), lesion: several types, types named in the paper, dosed 103 weeks, study length 105 weeks) stood at 3120 mg/kg/day; the TD50 (rat, strain Fischer 344, males, by gavage, site: skin, lesion: keratoacanthoma, dosed 103 weeks, study length 105 weeks) was 13 mg/kg/day (inactive). Moreover, under setting [10], the carcinogen call was “negative (inactive)”.
`CC(Cl)CCl` (centres undefined): the TD50 reads like this: under setting [1], 341 mg/kg/day; (mouse, strain B6C3F1, females, by gavage, site: forestomach, lesion: squamous-cell carcinoma + squamous-cell papilloma, dosed 103 weeks, study length 105 weeks) 1020 mg/kg/day; under setting [2], 346 mg/kg/day; under setting [3], 346 mg/kg/day; under setting [4], 562 mg/kg/day; under setting [5], 397 mg/kg/day. Further, the TD50 reads like this: (mouse, strain B6C3F1, males, by gavage, site: forestomach, lesion: squamous-cell papilloma, dosed 103 weeks, study length 105 weeks) 1520 mg/kg/day; under setting [6], 229 mg/kg/day; under setting [7], 229 mg/kg/day; under setting [8], 384 mg/kg/day; under setting [9], 5070 mg/kg/day; under setting [10], 240 mg/kg/day. The TD50 was 767 mg/kg/day (rat, strain Fischer 344, females, by gavage, site: mammary gland, lesion: adenocarcinoma, NOS, dosed 103 weeks, study length 105 weeks); 69.7 mg/kg/day (inactive) (rat, strain Fischer 344, males, by gavage, site: any site (literature study), lesion: several types, types named in the paper, dosed 103 weeks, study length 106 weeks); 2570 mg/kg/day (rat, strain Fischer 344, males, by gavage, site: liver, lesion: hepatocellular adenoma + hepatocellular carcinoma + neoplastic nodule, dosed 103 weeks, study length 106 weeks).
With `O=C([O-])c1cc(N=Nc2ccc(-c3ccc(N=Nc4c(O)ccc(N=Nc5cc(S(=O)(=O)[O-])ccc5[O-])c4[O-])cc3)cc2)ccc1O.[Cu+2].[Na+].[Na+]`, the TD50 reads like this: (rat, strain Fischer 344, females, in feed, site: any site (literature study), lesion: several types, types named in the paper, dosed 13 weeks, study length 13 weeks) 2.07 mg/kg/day; (rat, strain Fischer 344, females, in feed, site: liver, lesion: hepatocellular adenoma + hepatocellular carcinoma + neoplastic nodule, dosed 13 weeks, study length 13 weeks) 2.07 mg/kg/day; (rat, strain Fischer 344, females, in feed, site: liver, lesion: hepatocellular carcinoma + neoplastic nodule, dosed 13 weeks, study length 13 weeks) 2.07 mg/kg/day. Also, the carcinogen call (rat, strain Fischer 344, males, in feed, site: any site (literature study), lesion: several types, types named in the paper, dosed 13 weeks, study length 13 weeks) is “negative (inactive)”.
With `COc1cc(OC)c2c3c(c(=O)oc2c1)CCC3`, where the note is “rat, strain Fischer, males, by gavage, site: liver, lesion: one or several types, types not named, dosed 52 weeks, study length 87 weeks”, the carcinogen call was “negative (inactive)”.
Consider `O=CNNC=O`, for which the TD50 by setting is: (mouse, strain Swiss albino, females, in drinking water, site: liver, lesion: hepatoma, dosed 83 weeks, study length 83 weeks) 7820 mg/kg/day (inactive); (mouse, strain Swiss albino, females, in drinking water, site: liver, lesion: several types, types named in the paper, dosed 83 weeks, study length 83 weeks) 89200 mg/kg/day; (mouse, strain Swiss albino, females, in drinking water, site: lung, lesion: adenocarcinoma, dosed 83 weeks, study length 83 weeks) 2170 mg/kg/day; (mouse, strain Swiss albino, females, in drinking water, site: lung, lesion: adenoma, dosed 83 weeks, study length 83 weeks) 561 mg/kg/day; (mouse, strain Swiss albino, females, in drinking water, site: lung, lesion: several types, types named in the paper, dosed 83 weeks, study length 83 weeks) 571 mg/kg/day; (mouse, strain Swiss albino, males, in drinking water, site: liver, lesion: hepatoma, dosed 83 weeks, study length 83 weeks) 11300 mg/kg/day (inactive). Besides, the TD50 is 8140 mg/kg/day (mouse, strain Swiss albino, males, in drinking water, site: liver, lesion: several types, types named in the paper, dosed 83 weeks, study length 83 weeks); 4530 mg/kg/day (mouse, strain Swiss albino, males, in drinking water, site: lung, lesion: adenocarcinoma, dosed 83 weeks, study length 83 weeks); 779 mg/kg/day (mouse, strain Swiss albino, males, in drinking water, site: lung, lesion: adenoma, dosed 83 weeks, study length 83 weeks); 806 mg/kg/day (mouse, strain Swiss albino, males, in drinking water, site: lung, lesion: several types, types named in the paper, dosed 83 weeks, study length 83 weeks).
